Read-outs that look alike come from different tables or passages of the source.

Assay [1] concerns bronchitic patients. In words: Pulmonary function and pro-inflammatory parameters in bronchitic patients after nebulised drug. Type of assay: in vivo, human. As to conditions: aspirin by nebuliser.
Protocol: The study involved 4 patients with a diagnosis of COPD according to the ATS/ERS guidelines (B R Celli et al. Eur. Respir. J. 2004; 23: 932-46), who were smokers or former smokers (≧20 packets a year). The patients were instructed in the use of a peak expiratory flow (PEF) measuring device using a peak flowmeter, and asked to record the PEF measurements in a daily diary. The measurements were performed 3 times a day: immediately after getting up in the morning, before lunch, and at night before going to bed. […] The patients were suitably instructed as to how to perform the PEF measurements, and asked to record the various measurements and any symptoms, whether correlated with the disease or not, in a daily diary. Before beginning treatment with 900 mg lysine acetylsalicylate (equivalent to 500 mg of acetylsalicylic acid) twice a day, morning and evening, administered after measurement of the corresponding PEF, the patients discontinued all pharmacological treatment except for short-acting bronchodilators in accordance with the ATS/ERS guidelines (B R Celli et al. Eur. Respir. J. 2004; 932-46) as first-line of treatment. This basic treatment was continued for 15 days, during which the PEF values were recorded; their mean value was considered as the baseline value. […]
The subject of assay [2] is bronchitic patients. As to conditions: cited from earlier work.
For a further assay, the system named is asthma patients. As to conditions: by inhalation, Sestini P. et al. 1999; cited from earlier work.
The test system of assay [3] is bronchitic patients. As to conditions: indomethacin inhaler; Tamaoki et al.; cited from earlier work.
The subject of assay [4] is patients with a diagnosis of COPD. In words: Peak expiratory flow (PEF) in COPD patients treated by inhalation. As to conditions: 900 mg lysine acetylsalicylate (equivalent to 500 mg acetylsalicylic acid) twice a day by inhalation, 30 days, vs 15-day baseline; two patients; similar at all 3 daily measurements. Type of assay: in vivo, human. Here is the method:
The study involved 4 patients with a diagnosis of COPD according to the ATS/ERS guidelines (B R Celli et al. Eur. Respir. J. 2004; 23: 932-46), who were smokers or former smokers (≧20 packets a year). The patients were instructed in the use of a peak expiratory flow (PEF) measuring device using a peak flowmeter, and asked to record the PEF measurements in a daily diary. The measurements were performed 3 times a day: immediately after getting up in the morning, before lunch, and at night before going to bed. At least 3 daily PEF measurements are considered a good method for the measurement of pulmonary function (C A. Holcroft et al., Chest, 2003; 124: 501-10). PEF measurement has also been used, together with other spirometric tests, to evaluate potential COPD drugs (N A. Hanania et al., Chest, 2003; 124: 834-43). The patients were suitably instructed as to how to perform the PEF measurements, and asked to record the various measurements and any symptoms, whether correlated with the disease or not, in a daily diary. […] This basic treatment was continued for 15 days, during which the PEF values were recorded; their mean value was considered as the baseline value. […]

For the molecule `CC(=O)Oc1ccccc1C(=O)O` [aspirin, acetylsalicylic acid], in the assay on bronchitic patients [1], the pulmonary function entry is on record as “definite improvement” and the pulmonary pro-inflammatory parameters result is listed as “reduction”. Besides, in the assay with bronchitic patients [2] (aspirin by inhalation, Inoue H et al. 1991), the sputum volume entry is recorded as “reduces the sputum volume”. In addition, in the assay with asthma patients, the immediate allergen-induced bronchoconstriction result is given as “inhibited”.
For the molecule `COc1ccc2c(c1)c(CC(=O)O)c(C)n2C(=O)c1ccc(Cl)cc1` [indomethacin], in the assay with bronchitic patients [3], the “variation in respiratory function (FEV1)” value is listed as “did not observe any significant variation”. Besides, in the assay with bronchitic patients [2] (indomethacin inhaler, Tamaoki J. et al. 1992), the sputum volume entry is on record as “reduction in sputum volume”. In the assay with asthma patients, the immediate allergen-induced bronchoconstriction entry is listed as “ineffective”.
`CC(=O)Oc1ccccc1C(=O)O` [lysine acetylsalicylate]: the “mean increase in PEF” value in assay [4] was 8 to 10 L/min.

Values taken from patent US9132109B2, “Use of non-steroidal anti-inflammatory drugs by inhalation in the treatment of acute and chronic bronchitis” (MEDESTEA RESEARCH & PRODUCTION S.P.A., priority 2005, dated 2015).
